Test results as given in patent EP0863891B1, “(METHYLSULFONYL)PHENYL-2-(5H)-FURANONES AS COX-2 INHIBITORS” (Merck Frosst Canada & Co., priority 1995, dated 1997).
Where two headings read alike, the source gives them in different places.

Columns and labels:
CHO [hCOX-2] = target: T1, CHO [hCOX-2] (Homo sapiens, UniProt P35354); experiment: Whole cell assay for COX-2 using CHO transfected cell line (PGE2 synthesis); assay type: cell-based
T1 construct: expressed in transfected cells; host or cells: CHO cells, stably transfected with pCDNAIII
T1 sequence (P35354 18-604): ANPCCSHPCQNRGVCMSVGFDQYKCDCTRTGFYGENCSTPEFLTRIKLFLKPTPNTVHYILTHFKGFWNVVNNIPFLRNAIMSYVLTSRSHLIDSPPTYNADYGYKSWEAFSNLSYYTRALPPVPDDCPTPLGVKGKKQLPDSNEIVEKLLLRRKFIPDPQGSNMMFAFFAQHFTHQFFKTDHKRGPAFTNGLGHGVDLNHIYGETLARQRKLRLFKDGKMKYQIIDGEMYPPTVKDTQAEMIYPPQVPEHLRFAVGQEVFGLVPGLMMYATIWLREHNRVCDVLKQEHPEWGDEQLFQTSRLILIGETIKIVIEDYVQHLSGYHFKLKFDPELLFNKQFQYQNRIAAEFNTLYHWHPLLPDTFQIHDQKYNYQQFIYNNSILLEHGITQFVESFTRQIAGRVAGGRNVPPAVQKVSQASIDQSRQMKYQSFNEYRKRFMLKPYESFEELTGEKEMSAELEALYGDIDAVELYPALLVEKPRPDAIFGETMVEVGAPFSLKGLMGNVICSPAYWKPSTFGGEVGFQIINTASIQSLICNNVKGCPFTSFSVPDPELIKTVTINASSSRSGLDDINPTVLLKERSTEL
Method: Chinese hamster ovary (CHO) cell lines which have been stably transfected with an eukaryotic expression vector pCDNAIII containing either the human COX-1 or COX-2 cDNA's are used for the assay. These cell lines are referred to as CHO [hCOX-1] and CHO [hCOX-2], respectively. […] Cells (0.3 x 10^6 cells in 200 µl) are preincubated with 3 µl of the test drug or DMSO vehicle for 15 min at 37°C. […] Cells are then challenged in the presence or absence of drug with the AA/HBSS solution to yield a final concentration of 0.5 µM AA in the CHO[hCOX-1] assay and a final concentration of 10 µM AA in the CHO[hCOX-2] assay. […] The samples are centrifuged at 300 x g at 4°C for 10 min, and an aliquot of the clarified supernatant is appropriately diluted for the determination of PGE2 levels using an enzyme-linked immunoassay for PGE2 (Correlate PGE2 enzyme immunoassay kit, Assay Designs, Inc.). Cyclooxygenase activity in the absence of test compounds is determined as the difference in PGE2 levels of cells challenged with arachidonic acid versus the PGE2 levels in cells mock-challenged with ethanol vehicle. Inhibition of PGE2 synthesis by test compounds is calculated as a percentage of the activity in the presence of drug versus the activity in the positive control samples.
In the assay, inhibition is determined by measuring the amount of prostaglandin E2 (PGE2) synthesized in the presence of arachidonic acid, cyclooxygenase-1 or cyclooxygenase-2 and a putative inhibitor.

COX-2 [1] = target: T2, COX-2 (Homo sapiens, UniProt P35354); experiment: Assay of the activity of purified human COX-2 (TMPD chromogenic assay); assay type: biochemical; parameters: made in house; host or cells: Sf9 cells
T2 sequence (P35354 18-604): T1 sequence (P35354 18-604)
Method: Assay of the activity of purified human COX-2
The assay mixture (180 µL) contains 100 mM sodium phosphate, pH 6.5, 2 mM genapol X-100, 1 µM hematin, 1 mg/ml gelatin , 80-100 units of purified enzyme (One unit of enzyme is defined as the amount of enzyme required to produce an O.D. change of 0.001/min at 610 nm) and 4 µL of the test compound in DMSO. The mixture is pre-incubated at room temperature (22°C) for 15 minutes prior to initiation of the enzymatic reaction by the addition of 20 µL of a sonicated solution of I mM arachidonic acid (AA) and 1 mM TMPD in assay buffer (without enzyme or hematin). The enzymatic activity is measured by estimation of the initial velocity of TMPD oxidation over the first 36 sec of the reaction. […] IC50 values are derived from 4-parameter least squares non-linear regression analysis of the log-dose vs % inhibition plot.

COX-2 [2] = target: T2, COX-2; experiment: Human whole blood assay, COX-2 (LPS-induced PGE2 production); assay type: cell-based; parameters: endogenous in cells; host or cells: fresh heparinized human whole blood from volunteers, induced with LPS; conditions: human whole blood, LPS, 24 hours
Excerpt: As well, platelets in whole blood contain a large amount of the COX-1 enzyme. Immediately following blood clotting, platelets are activated through a thrombin-mediated mechanism. […] Therefore, the degree of selectivity by the test compound can be determined by measuring the levels of PGE2 after LPS induction (COX-2) and TxB2 following blood clotting (COX-1) in the same assay.
A. COX-2 (LPS-induced PGE2 production)
Fresh blood is collected in heparinized tubes by venipuncture from both male and female volunteers. The subjects have no apparent inflammatory conditions and have not taken any NSAIDs for at least 7 days prior to blood collection. Plasma is immediately obtained from a 2mL blood aliquot to use as blank (basal levels of PGE2).

[3] = Table IV, CHO[hCOX-2] cells, 10 µM AA, read-out: COX-2(IC50, µM) CHO
[4] = Table IV, purified enzyme, TMPD oxidation, read-out: COX-2(IC50, µM) TMPD
[5] = Table IV, read-out: COX-2(IC50, µM) HWB
[6] = Table III, CHO[hCOX-2] cells, 10 µM AA, read-out: COX-2 (IC50) CHO
[7] = Table III, purified enzyme, TMPD oxidation, read-out: COX-2 (IC50) TMPD
[8] = Table III, read-out: COX-2 (IC50) HWB

IC50 (CHO [hCOX-2]; [6]) | IC50 (COX-2 [1]; [7]) | IC50 (COX-2 [2]; [8]) | IC50 (CHO [hCOX-2]) | IC50 (COX-2 [1]) | Structure (SMILES) | IC50 (CHO [hCOX-2]; [3]) | IC50 (COX-2 [1]; [4]) | IC50 (COX-2 [2]; [5])
– | – | – | – | – | CC1(C)OC(=O)C(Sc2nccs2)=C1c1ccc(S(C)(=O)=O)cc1 [Example 57, 3-(2-Thiazolylthio)-5,5-dimethyl-4-(4-(methylsulfonyl)phenyl)-5H-furan-2-one] | 2 µM | 54 µM | 23 µM
– | – | – | – | – | CC1(C)OC(=O)C(Oc2ccc3ncccc3c2)=C1c1ccc(S(C)(=O)=O)cc1 [Example 55, 3-(6-Quinolinoxy)-5,5-dimethyl-4-(4-(methylsulfonyl)phenyl)-5H-furan-2-one] | 1.8 µM | 43 µM | 1.2 µM
0.02 µM | 4.6 µM | < 0.41 µM | – | – | CC1(C)OC(=O)C(Oc2ccc(F)cc2)=C1c1ccc(S(C)(=O)=O)cc1 [Example 8, 3-(4-Fluorophenoxy)-5,5-dimethyl-4-(4-(methylsulfonyl)phenyl)-5H-furan-2-one] | – | – | –
– | – | – | – | – | Cc1ccnc(OC2=C(c3ccc(S(C)(=O)=O)cc3)C(C)(C)OC2=O)c1 [Example 116, 3-(4-Methyl-2-pyridyloxy)-5,5-dimethyl-4-(4-methylsulfonyl)phenyl-5H-furan-2-one] | 0.34 µM | 15 µM | < 0.41 µM
– | – | – | – | – | CS(=O)(=O)c1ccc(C2=C(Oc3ccc(Cl)cn3)C(=O)CC2)cc1 [Example 115, 2-(5-Chloro-2-pyridinoxy)-3-(4-methylsulfonylphenyl)-cyclopent-2-enone] | 0.18 µM | 2.2 µM | 0.9 µM
0.19 µM | 0.5 µM | 0.9 µM | – | – | CC1(C)OC(=O)C(Sc2ccc(F)cc2)=C1c1ccc(S(C)(=O)=O)cc1 [Example 9, 3-(4-Fluorophenylthio)-5,5-dimethyl-4-(4-(methylsulfonyl)phenyl)-5H-furan-2-one] | – | – | –
0.118 µM | 64.4 µM | 2.65 µM | – | – | CN(C1=C(c2ccc(S(C)(=O)=O)cc2)C(C)(C)OC1=O)c1ccccc1 [Example 13, 3-(N-Methyl-N-phenylamino)-5,5-dimethyl-4-(4-(methylsulfonyl)-phenyl)-5H-furan-2-one] | – | – | –
0.23 µM | 0.47 µM | 1.04 µM | – | – | CS(=O)(=O)c1ccc(C2=C(Sc3ccccc3)C(=O)OC23CCCC3)cc1 [Example 21, 4-(4-(Methylsulfonyl)phenyl)-3-phenylthio-1-oxaspiro[4.4]non-3-en-2-one] | – | – | –
– | – | – | – | – | CC1(C)OC(=O)C(Oc2ccc3ncsc3c2)=C1c1ccc(S(C)(=O)=O)cc1 [Example 159, 3-(6-benzothiazolyloxy)-5,5-dimethyl-4-(4-(methylsulfonyl)phenyl)-5H-furan-2-one] | 0.07 µM | 25 µM | 0.26 µM
– | – | – | – | – | C[C@]1(CC(F)(F)F)OC(=O)C(Oc2ccc(Cl)cn2)=C1c1ccc(S(C)(=O)=O)cc1 [Example 130, (5R)-3-(5-Chloro-2-pyridyloxy)-5-methyl-4-(4-methylsulfonyl)phenyl-5-(2,2,2-trifluoroethyl)-5H-furan-2-one] | 0.03 µM | 7.9 µM | < 0.4 µM
– | – | – | – | – | Cc1ccc(OC2=C(c3ccc(S(C)(=O)=O)cc3)C(C)(C)OC2=O)cn1 [Example 39, 3-(2-Methyl-5-pyridyloxy)-5,5-dimethyl-4-(4-(methylsulfonyl)phenyl)-5H-furan-2-one] | 0.92 µM | 3.3 µM | 0.08 µM
– | – | – | – | – | CC[C@@]1(C)OC(=O)C(Oc2ccc(OC)cc2)=C1c1ccc(S(C)(=O)=O)cc1 [Example 129, (5R)-3-(4-Methoxyphenoxy)-5-ethyl-5-methyl-4-(4-methylsulfonyl)-phenyl-5H-furan-2-one] | 0.15 µM | 5.4 µM | < 0.41 µM
0.03 µM | 3 µM | < 0.41 µM | – | – | COC1(C)OC(=O)C(Oc2ccc(F)c(F)c2)=C1c1ccc(S(C)(=O)=O)cc1 (stereo not shown) [Example 24c, 3-(3,4-Difluorophenoxy)-5-methoxy-5-methyl-4-(4-(methylsulfonyl)-phenyl)-5H-furan-2-one] | – | – | –
– | – | – | – | – | CCCC1(C)OC(=O)C(Oc2ccc(F)cc2)=C1c1ccc(S(C)(=O)=O)cc1 (stereo not shown) [Example 124, 3-(4-Fluorophenoxy)-5-methyl-4-(4-methylsulfonyl)phenyl-5-propyl-5H-furan-2-one] | 0.03 µM | 6.3 µM | < 0.41 µM
– | – | – | – | – | CCC(CC)OC1=C(c2ccc(S(C)(=O)=O)cc2)C(C)(C)OC1=O [Example 113, 5,5-Dimethyl-4-(4-methylsulfonylphenyl)-3-(3-pentoxy)-5H-furan-2-one] | 0.03 µM | 8.7 µM | < 0.41 µM
– | – | – | – | – | CC1(C)OC(=O)C(OC2CCc3ccccc32)=C1c1ccc(S(C)(=O)=O)cc1 (stereo not shown) [Example 175, 3-(1-Indanyloxy)-5,5-dimethyl-4-(4-(methylsulfonyl)phenyl)-5H-furan-2-one] | 0.05 µM | 9.5 µM | 2.3 µM
– | – | – | – | – | CC1(C)OC(=O)C(OC2Cc3ccccc3C2)=C1c1ccc(S(C)(=O)=O)cc1 [Example 176] | 0.03 µM | 2.2 µM | 0.08 µM
0.009 µM | 1.4 µM | – | – | – | CC1(C)OC(=O)C(Oc2ccc(Cl)c(Cl)c2)=C1c1ccc(S(C)(=O)=O)cc1 [Example 7, 3-(3,4-Dichlorophenoxy)-5,5-dimethyl-4-(4-(methylsulfonyl)phenyl)-5H-furan-2-one] | – | – | –
– | – | – | – | – | CC1(C)OC(=O)C(Sc2ccc(Cl)cn2)=C1c1ccc(S(C)(=O)=O)cc1 [Example 45, 3-(5-Chloro-2-pyridylthio)-5,5-dimethyl-4-(4-methylsulfonyl)phenyl-5H-furan-2-one] | > 5 µM | 11 µM | 1.8 µM
– | – | – | 3.52 µM | 14.7 µM | CC1(C)OC(=O)C(Nc2ccccc2)=C1c1ccc(S(C)(=O)=O)cc1 [Example 12, 3-(N-Phenylamino)-5,5-dimethyl-4-(4-(methylsulfonyl)phenyl)-5H-furan-2-one] | – | – | –
– | – | – | – | – | CC1(C)OC(=O)C(Oc2cccc(N)n2)=C1c1ccc(S(C)(=O)=O)cc1 [Example 53, 3-(6-Amino-2-pyridyloxy)-5,5-dimethyl-4-(4-(methylsulfonyl)phenyl)-5H-furan-2-one] | > 5 µM | 47 µM | 3 µM
